Reference: publication PMC12406203 (Journal of Medicinal Chemistry, 2025)

Key:
Test in all cases: KINOMEscan
Format in all cases: binding
CDK3 = target: T1, CDK3 (Homo sapiens, UniProt Q00526)
T1 construct: purchased Eurofins DiscoverX, LLC; host or cells: E. coli BL21-derived (T7 phage) or HEK-293

DYRK1B = target: T2, DYRK1B (Homo sapiens, UniProt Q9Y463)
T2 construct: purchased Eurofins DiscoverX, LLC; host or cells: E. coli (T7 phage) or HEK-293

EGFR(L858R) = target: T3, EGFR(L858R) (Homo sapiens, UniProt P00533, L858R)
T3 construct: purchased Eurofins DiscoverX, LLC; host or cells: E. coli (T7 phage) or HEK-293

IKKβ = target: T4, IKKβ (Homo sapiens, UniProt O14920)
T4 construct: purchased Eurofins DiscoverX, LLC; host or cells: E. coli (T7 phage) or HEK-293
T4 sequence (O14920 1-756): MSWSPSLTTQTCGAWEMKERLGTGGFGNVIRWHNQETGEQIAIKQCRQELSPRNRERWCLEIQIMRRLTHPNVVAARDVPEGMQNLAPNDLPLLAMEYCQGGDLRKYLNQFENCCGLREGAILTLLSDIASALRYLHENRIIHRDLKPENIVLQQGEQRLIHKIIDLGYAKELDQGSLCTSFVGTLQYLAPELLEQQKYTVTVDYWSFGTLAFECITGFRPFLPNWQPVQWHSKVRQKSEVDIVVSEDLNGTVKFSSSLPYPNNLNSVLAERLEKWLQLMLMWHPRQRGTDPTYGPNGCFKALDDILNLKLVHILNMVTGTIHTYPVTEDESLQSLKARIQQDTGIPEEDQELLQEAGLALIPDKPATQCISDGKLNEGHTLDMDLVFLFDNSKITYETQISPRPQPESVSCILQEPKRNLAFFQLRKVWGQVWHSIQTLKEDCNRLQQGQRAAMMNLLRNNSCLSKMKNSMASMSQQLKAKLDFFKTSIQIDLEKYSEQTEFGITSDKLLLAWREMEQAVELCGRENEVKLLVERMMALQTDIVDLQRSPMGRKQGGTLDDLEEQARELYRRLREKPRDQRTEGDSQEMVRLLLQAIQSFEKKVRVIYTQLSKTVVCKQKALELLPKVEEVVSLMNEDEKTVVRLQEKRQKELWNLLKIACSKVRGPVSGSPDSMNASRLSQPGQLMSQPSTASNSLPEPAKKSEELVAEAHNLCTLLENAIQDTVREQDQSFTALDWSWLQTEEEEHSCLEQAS

MAPKAPK5 = target: T5, MAPKAPK5 (Homo sapiens, UniProt Q8IW41)
T5 construct: purchased Eurofins DiscoverX, LLC; host or cells: E. coli (BL21-derived, T7 phage) or HEK-293
T5 sequence (Q8IW41 1-473): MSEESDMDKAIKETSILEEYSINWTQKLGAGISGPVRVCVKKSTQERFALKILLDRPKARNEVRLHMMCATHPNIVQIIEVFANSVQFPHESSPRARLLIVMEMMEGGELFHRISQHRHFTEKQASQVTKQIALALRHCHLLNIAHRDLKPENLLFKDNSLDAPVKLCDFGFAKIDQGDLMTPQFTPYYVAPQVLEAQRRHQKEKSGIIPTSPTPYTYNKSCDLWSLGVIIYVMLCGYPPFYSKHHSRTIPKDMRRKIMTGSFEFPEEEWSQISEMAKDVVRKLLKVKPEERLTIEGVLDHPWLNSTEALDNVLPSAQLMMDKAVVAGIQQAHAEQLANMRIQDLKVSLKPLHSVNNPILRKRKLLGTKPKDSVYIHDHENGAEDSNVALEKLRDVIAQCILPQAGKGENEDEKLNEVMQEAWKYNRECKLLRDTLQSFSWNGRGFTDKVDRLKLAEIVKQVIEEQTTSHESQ

PDGFRA = target: T6, PDGFRA (Homo sapiens, UniProt P16234)
T6 construct: purchased Eurofins DiscoverX, LLC; host or cells: E. coli BL21-derived host (T7 phage) or HEK-293

PDGFRB = target: T7, PDGFRB (Homo sapiens, UniProt P09619)
T7 construct: purchased Eurofins DiscoverX, LLC; host or cells: E. coli BL21-derived host (T7 phage) or HEK-293

TGFBR1 = target: T8, TGFBR1 (Homo sapiens, UniProt P36897)
T8 construct: purchased Eurofins DiscoverX, LLC; host or cells: E. coli BL21-derived host (T7 phage) or HEK-293
T8 sequence (P36897 34-503): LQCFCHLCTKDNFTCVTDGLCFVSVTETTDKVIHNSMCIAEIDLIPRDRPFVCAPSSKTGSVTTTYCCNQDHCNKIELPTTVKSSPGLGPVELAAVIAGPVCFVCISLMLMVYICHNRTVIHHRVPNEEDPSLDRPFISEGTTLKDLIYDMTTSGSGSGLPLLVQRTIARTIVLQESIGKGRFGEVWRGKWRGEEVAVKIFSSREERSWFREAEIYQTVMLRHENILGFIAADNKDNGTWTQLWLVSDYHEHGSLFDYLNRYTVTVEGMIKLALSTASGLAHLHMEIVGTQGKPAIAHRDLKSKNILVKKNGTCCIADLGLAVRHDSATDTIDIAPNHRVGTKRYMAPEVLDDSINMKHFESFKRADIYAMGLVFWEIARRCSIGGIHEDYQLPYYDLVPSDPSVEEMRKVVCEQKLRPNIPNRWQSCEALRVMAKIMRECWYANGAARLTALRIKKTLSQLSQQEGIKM

p38α = target: T9, p38α (Homo sapiens, UniProt Q16539)
T9 construct: purchased Eurofins DiscoverX, LLC; host or cells: E. coli (BL21-derived, T7 phage) or HEK-293
T9 sequence (Q16539 whole entry): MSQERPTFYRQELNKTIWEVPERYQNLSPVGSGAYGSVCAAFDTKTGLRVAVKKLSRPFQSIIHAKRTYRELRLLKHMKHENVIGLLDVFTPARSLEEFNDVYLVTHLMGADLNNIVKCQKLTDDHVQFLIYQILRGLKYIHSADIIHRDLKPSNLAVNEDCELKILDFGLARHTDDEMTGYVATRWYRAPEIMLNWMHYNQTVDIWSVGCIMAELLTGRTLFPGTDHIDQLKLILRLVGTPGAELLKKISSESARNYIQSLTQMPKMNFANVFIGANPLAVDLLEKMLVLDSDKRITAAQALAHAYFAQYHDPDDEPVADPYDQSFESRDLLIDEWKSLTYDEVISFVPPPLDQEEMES

T1 sequence (Q00526 whole entry): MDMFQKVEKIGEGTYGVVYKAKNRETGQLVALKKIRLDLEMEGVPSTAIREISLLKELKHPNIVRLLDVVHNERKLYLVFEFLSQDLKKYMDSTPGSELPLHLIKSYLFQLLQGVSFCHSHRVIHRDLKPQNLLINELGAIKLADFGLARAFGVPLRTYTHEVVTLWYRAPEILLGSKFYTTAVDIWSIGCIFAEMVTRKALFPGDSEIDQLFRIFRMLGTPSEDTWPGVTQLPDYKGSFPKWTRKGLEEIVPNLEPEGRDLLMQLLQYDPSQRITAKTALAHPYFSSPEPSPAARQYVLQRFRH
T6 sequence (P16234 24-1089): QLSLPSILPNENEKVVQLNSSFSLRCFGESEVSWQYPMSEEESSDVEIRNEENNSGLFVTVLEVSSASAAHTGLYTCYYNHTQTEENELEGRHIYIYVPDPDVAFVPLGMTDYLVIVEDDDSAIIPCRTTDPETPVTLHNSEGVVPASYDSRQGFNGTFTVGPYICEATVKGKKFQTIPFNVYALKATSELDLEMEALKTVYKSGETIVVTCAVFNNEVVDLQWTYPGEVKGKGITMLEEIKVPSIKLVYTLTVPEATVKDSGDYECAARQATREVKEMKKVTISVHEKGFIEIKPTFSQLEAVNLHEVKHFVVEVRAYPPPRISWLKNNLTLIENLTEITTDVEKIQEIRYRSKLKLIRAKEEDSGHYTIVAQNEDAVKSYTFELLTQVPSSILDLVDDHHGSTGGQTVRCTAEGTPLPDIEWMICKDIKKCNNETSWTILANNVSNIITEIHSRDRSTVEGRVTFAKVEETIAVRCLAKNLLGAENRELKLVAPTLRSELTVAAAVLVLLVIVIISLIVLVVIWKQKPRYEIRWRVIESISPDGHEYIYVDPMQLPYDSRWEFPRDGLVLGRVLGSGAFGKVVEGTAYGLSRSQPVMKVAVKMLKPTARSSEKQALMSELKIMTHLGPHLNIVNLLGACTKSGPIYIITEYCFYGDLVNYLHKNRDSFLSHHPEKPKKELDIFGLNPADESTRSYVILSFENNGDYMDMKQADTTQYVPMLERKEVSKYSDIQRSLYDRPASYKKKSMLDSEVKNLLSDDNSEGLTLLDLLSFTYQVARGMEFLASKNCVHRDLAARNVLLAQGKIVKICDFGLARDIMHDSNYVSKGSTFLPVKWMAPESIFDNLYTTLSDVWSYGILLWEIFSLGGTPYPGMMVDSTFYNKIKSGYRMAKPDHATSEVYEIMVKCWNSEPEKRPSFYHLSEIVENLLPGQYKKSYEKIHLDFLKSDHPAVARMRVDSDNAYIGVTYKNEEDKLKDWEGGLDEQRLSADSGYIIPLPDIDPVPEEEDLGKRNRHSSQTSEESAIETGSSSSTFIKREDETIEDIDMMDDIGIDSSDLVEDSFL
T2 sequence (Q9Y463 whole entry): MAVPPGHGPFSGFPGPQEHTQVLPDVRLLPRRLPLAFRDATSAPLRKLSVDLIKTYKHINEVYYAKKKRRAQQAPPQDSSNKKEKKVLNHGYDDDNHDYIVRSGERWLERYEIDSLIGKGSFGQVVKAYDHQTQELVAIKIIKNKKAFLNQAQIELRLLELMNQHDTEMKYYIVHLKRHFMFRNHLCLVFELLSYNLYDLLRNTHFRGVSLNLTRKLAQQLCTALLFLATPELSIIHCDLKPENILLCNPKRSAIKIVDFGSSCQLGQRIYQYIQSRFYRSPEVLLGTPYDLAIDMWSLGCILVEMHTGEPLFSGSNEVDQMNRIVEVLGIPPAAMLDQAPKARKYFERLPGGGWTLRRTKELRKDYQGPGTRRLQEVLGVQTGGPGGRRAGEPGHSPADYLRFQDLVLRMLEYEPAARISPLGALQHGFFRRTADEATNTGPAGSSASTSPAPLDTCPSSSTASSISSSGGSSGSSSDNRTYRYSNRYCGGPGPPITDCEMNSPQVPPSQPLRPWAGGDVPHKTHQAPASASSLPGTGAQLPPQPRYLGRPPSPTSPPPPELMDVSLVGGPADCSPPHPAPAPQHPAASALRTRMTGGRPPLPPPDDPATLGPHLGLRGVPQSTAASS
T7 sequence (P09619 33-1106): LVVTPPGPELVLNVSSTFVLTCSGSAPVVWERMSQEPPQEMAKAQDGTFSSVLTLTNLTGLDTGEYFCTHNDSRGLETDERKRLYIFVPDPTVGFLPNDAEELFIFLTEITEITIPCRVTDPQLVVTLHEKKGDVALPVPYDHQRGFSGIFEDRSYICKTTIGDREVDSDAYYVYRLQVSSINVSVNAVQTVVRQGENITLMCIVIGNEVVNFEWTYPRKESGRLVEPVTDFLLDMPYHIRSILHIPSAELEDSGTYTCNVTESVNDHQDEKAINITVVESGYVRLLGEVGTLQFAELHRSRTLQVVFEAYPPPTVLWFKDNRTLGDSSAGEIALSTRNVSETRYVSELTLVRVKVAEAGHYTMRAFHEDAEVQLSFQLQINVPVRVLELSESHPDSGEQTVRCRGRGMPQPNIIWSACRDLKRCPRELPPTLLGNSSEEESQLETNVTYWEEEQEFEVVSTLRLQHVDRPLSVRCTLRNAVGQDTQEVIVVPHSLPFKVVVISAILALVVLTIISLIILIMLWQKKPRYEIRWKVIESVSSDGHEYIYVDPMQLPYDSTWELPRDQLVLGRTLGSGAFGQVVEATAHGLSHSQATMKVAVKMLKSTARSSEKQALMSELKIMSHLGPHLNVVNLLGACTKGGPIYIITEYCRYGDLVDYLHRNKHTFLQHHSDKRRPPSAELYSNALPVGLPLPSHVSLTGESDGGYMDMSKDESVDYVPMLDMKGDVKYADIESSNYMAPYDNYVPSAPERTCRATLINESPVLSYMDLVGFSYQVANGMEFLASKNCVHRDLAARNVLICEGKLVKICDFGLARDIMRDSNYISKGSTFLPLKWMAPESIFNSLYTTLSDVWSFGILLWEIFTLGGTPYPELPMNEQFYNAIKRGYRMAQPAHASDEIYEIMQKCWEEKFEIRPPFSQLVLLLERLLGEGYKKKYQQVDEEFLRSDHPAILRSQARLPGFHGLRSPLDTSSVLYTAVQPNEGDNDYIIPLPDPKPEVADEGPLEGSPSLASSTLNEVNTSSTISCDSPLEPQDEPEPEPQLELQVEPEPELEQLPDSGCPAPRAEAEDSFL

CN(C)CCNC(=O)c1cc2c(cnn2CC2CCCCC2)cc1Cc1ccc(F)cc1F [Compound 95, 1-(Cyclohexylmethyl)-5-(2,4-difluorobenzyl)-N-(2-(dimethylamino)ethyl)-1H-indazole-6-carboxamide]
RA @ 1000nM (CDK3): 100% | RA @ 10000nM (CDK3): 100% | RA @ 1000nM (DYRK1B): 95% | RA @ 10000nM (DYRK1B): 100% | RA @ 1000nM (EGFR(L858R)): 100% | RA @ 10000nM (EGFR(L858R)): 100% | RA @ 1000nM (IKKβ): 93% | RA @ 10000nM (IKKβ): 80% | RA @ 1000nM (MAPKAPK5): 100% | RA @ 10000nM (MAPKAPK5): 100% | RA @ 1000nM (PDGFRA): 92% | RA @ 10000nM (PDGFRA): 92% | RA @ 1000nM (PDGFRB): 100% | RA @ 10000nM (PDGFRB): 96% | RA @ 1000nM (TGFBR1): 100% | RA @ 10000nM (TGFBR1): 100% | RA @ 1000nM (p38α): 6.7% | RA @ 10000nM (p38α): 0.1%

CC(C)Cn1ncc2cc(Cc3ccc(F)cc3F)c(C(=O)NCCN(C)C)cc21 [Compound 94, 5-(2,4-Difluorobenzyl)-N-(2-(dimethylamino)ethyl)-1-isobutyl-1H-indazole-6-carboxamide]
RA @ 1000nM (CDK3): 100% | RA @ 10000nM (CDK3): 1.3% | RA @ 1000nM (DYRK1B): 100% | RA @ 10000nM (DYRK1B): 85% | RA @ 1000nM (EGFR(L858R)): 100% | RA @ 10000nM (EGFR(L858R)): 66% | RA @ 1000nM (IKKβ): 89% | RA @ 10000nM (IKKβ): 89% | RA @ 1000nM (MAPKAPK5): 100% | RA @ 10000nM (MAPKAPK5): 100% | RA @ 1000nM (PDGFRA): 96% | RA @ 10000nM (PDGFRA): 76% | RA @ 1000nM (PDGFRB): 100% | RA @ 10000nM (PDGFRB): 97% | RA @ 1000nM (TGFBR1): 100% | RA @ 10000nM (TGFBR1): 100% | RA @ 1000nM (p38α): 2.3% | RA @ 10000nM (p38α): 0.4%
